Measured values reported in US20230301969A1, “DOSING SCHEDULE FOR A METHOD OF TREATMENT WITH DHODH INHIBITORS” (Bayer Aktiengesellschaft, priority 2020, published 2023).
“Also recorded” adds a separate entry of the source. Read-outs that look alike come from different tables or passages of the source.

Columns and labels:
[1] = Body weight of animals in the HT29 xenograft model (tolerability); assay type: in vivo, mice; conditions: for body weight / tolerability: 5 mg/kg p.o. 5 days on/2 days off, course of the experiment
Experimental: (§1) Tumor cells were injected subcutaneously into the flank of the mice. Treatment was initiated at a predefined tumor size after cell inoculation. BAY 2402234 was applied orally (p.o.) at various dose levels and schedules (daily or intermittent). BAY 2402234 was prepared in solution in PEG400/ETOH 9/1. Animal body weight during the study was monitored at least twice weekly. Subcutaneous tumors were measured with a caliper (length and width) at least twice a week, depending on the doubling time of the tumor. Values are presented as volume. Efficacy was calculated on a specific day according to the formula: T/C (treatment/control ratio)=(mean tumor volume from the treated group/mean tumor volume from the vehicle group). Tumor volume was calculated using (width^2×length)/2.
(§2) Colorectal cancer cells were inoculated in the flank of mice and 9 days after implantation tumors were measured and animals were randomized at an average tumor volume of around 80 mm^3. Treatment with DHODH Inhibitor BAY2402234 was started at time of randomization. Either daily dosing of 5 mg/kg or 10 mg/kg at a 5 days on/2 days off schedule or 5 mg/kg at a 5 days on 2 days off was used and the drug was given orally in 90/10 PEG400/EtOH formulation. The daily dosing sums up to a total weekly dose of 35 mg/kg, while the 5 days on/2 days off schedule sums up to a 50 or a 25 mg/kg weekly dose respectively.

[2] = test system: acute myeloid leukemia xenograft model THP1; assay: AML THP1 subcutaneous xenograft, tumor volume; assay type: in vivo, SCID mice; conditions: start day 16, 7 days of treatment
Experimental: as §1
(§3) AML THP1 cells were inoculated in the flank of SCID mice and 16 days after implantation tumors were measured and animals were randomized at an average tumor volume of around 100 mm^3. Treatment with DHODH Inhibitor BAY2402234 was started at time of randomization. Either daily dosing of 5 mg/kg or 10 mg/kg at a 4 days on/3 days off schedule was used and the drug was given orally in 90/10 PEG400/EtOH formulation. […] The daily dosing sums up to a total weekly dose of 35 mg/kg, while the 4 days on/3 days off schedule sums up to a 40 mg/kg weekly dose.

[3] = test system: colorectal cancer xenograft model HT29; assay: Colorectal cancer HT29 subcutaneous xenograft, tumor volume; assay type: in vivo, mice; conditions: start day 9
Experimental: as §1, §2

[4] = mouse, in vivo
Experimental: as §3

[5] = test system: Mantle cell lymphoma xenograft model Z138; assay: Mantle cell lymphoma Z138 subcutaneous xenograft, tumor volume; assay type: in vivo, SCID mice; conditions: start day 20
Experimental: as §1
Mantle Cell Lymphoma Z138 cells were inoculated in the flank of SCID mice and 20 days after implantation tumors were measured and animals were randomized at an average tumor volume of around 100 mm^3. Treatment with DHODH Inhibitor BAY 2402234 was started at time of randomization. Either daily dosing of 5 mg/kg or 10 mg/kg at a 4 days on/3 days off schedule or 5 mg/kg at a 5 days on 2 days off was used and the drug was given orally in 90/10 PEG400/EtOH formulation. The daily dosing sums up to a total weekly dose of 35 mg/kg, while the 4 days on/3 days off schedule sums up to a 40 mg/kg weekly dose and the 5 days on 2 days off sums up to 25 mg/kg weekly dose.

solid cancer = conditions: weekly doses or 5 days on 23 days off schedule, cited from earlier work
[6] = 5 mg/kg p.o. daily (35 mg/kg weekly)
[7] = 10 mg/kg p.o. 4 days on/3 days off (40 mg/kg weekly)
[8] = 5 mg/kg p.o. 5 days on/2 days off (25 mg/kg weekly)

Row | Compound | body weight / tolerability [1] | body weight / tolerability ([1]; listed as BAY2402234) | body weight loss ([1]; 5 mg/kg p.o. daily, at experiments end) | body weight loss ([1]; 10 mg/kg p.o. 5 days on/2 days off, at the end of the experiment) | development of tumor volume / efficacy [2, 6] | development of tumor volume / efficacy [2, 7] | development of tumor volume / efficacy [3, 8] | development of tumor volume / efficacy ([3]; 5 mg/kg p.o. 5 days on/2 days off (25 mg/kg weekly), listed as BAY2402234) | development of tumor volume / efficacy [3, 6] | development of tumor volume / efficacy ([3]; 5 mg/kg p.o. daily (35 mg/kg weekly), listed as BAY2402234) | development of tumor volume / efficacy ([3]; 10 mg/kg p.o. 5 days on/2 days off (50 mg/kg weekly)) | development of tumor volume / efficacy ([3]; 10 mg/kg p.o. 5 days on/2 days off (50 mg/kg weekly), listed as BAY2402234) | dose relative to maximal tolerated dose [4] | development of tumor volume / efficacy [5, 8] | development of tumor volume / efficacy [5, 6] | development of tumor volume / efficacy [5, 7] | clinical activity in solid cancer indications (solid cancer) | clinical activity in solid cancer indications (solid cancer; listed as Brequinar sodium)
1 | CCn1c(CO)nn(-c2cc(O[C@@H](C)C(F)(F)F)c(C(=O)Nc3c(F)cccc3Cl)cc2F)c1=O [BAY 2402234, N-(2-chloro-6-fluorophenyl)-4-[4-ethyl-3-(hydroxymethyl)-5-oxo-4,5-dihydro-1H-1,2,4-triazol-1-yl]-5-fluoro-2-{[(2S)-1,1,1-trifluoropropan-2-yl]oxy}benzamide] | relative constant bodyweight | best tolerated | above 10% | around 4% | stable disease | stable disease | tumor growth inhibition | tumor growth delay | tumor growth inhibition | tumor growth delay | tumor growth inhibition; also recorded: slightly stronger | tumor growth delay; also recorded: slightly more efficacious | close to the maximal tolerated dose | shrinkage of the tumors; also recorded: tumor regression | shrinkage of the tumors; also recorded: tumor regression | shrinkage of the tumors; also recorded: tumor regression |  | 
2 | Cc1c(-c2ccc(-c3ccccc3F)cc2)nc2ccc(F)cc2c1C(=O)O [Brequinar, 6-fluoro-2-(2′-fluoro-[1,1′-biphenyl]-4-yl)-3-methylquinoline-4-carboxylic acid] |  |  |  |  |  |  |  |  |  |  |  |  |  |  |  |  | failed to show sufficient clinical activity | ineffective
